Entries after “also recorded” stand apart in the source; their conditions may differ.
Tests used:
[1] = system: RAW 264.7 macrophages; experiment: Cytotoxicity by MTT assay in RAW 264.7 macrophages; format: cell-based, mouse; settings: for concentration above which cytotoxicity was observed: 72 h following treatment
Experimental: (§1) The IC50 values for the inhibition of NO production were determined in LPS-treated RAW 264.7 cells in comparison to cells treated with the vehicle (Carbowax 400) only (Table 3, Figure S1). To verify that the anti-inflammatory activity observed was not due to cytotoxic effect, the potential cytotoxicity of 1–6, 8, 10 and 11 was evaluated using the MTT assay following 24, 48 and 72 h of treatment in RAW 264.7 macrophages (Table 3, Figure S2).
(§2) Mouse macrophage cell line RAW 264.7 was cultured in DMEM medium (cat. # 21885-025, Gibco, Thermo Fisher Scientific, Waltham, MA, USA) supplemented with 10% heat inactivated fetal bovine serum (cat. # 10270-106, Gibco, Thermo Fisher Scientific, Waltham, MA, USA) and 1% penicillin-streptomycin (cat. # 15070-063, Gibco, Thermo Fisher Scientific, Waltham, MA, USA). Cells were cultured in 37 °C and 5% CO2. Each compound was diluted in Carbowax^TM 400 + 10% ethanol (cat. # 1.00983, Merck, Darmstadt, Germany), used also as control solvent. Final concentration in culture was 0.1% v/v carbowax and 0.01% v/v ethanol. RAW 264.7 macrophages were activated using 100 ng/mL lipopolysaccharide (LPS) (L2630, Merck, Darmstadt, Germany). In IC50 determination experiments, macrophages were pre-treated for 1 h with the respective compound prior to LPS stimulation.
(§3) 3.5 × 10^3 RAW 264.7 mouse macrophages were seeded in 96-well plate and cultured over night. Cells were subsequently treated with the respective compound concentration and incubated for 24, 48 and 72 h. Number of cells was measured prior to treatment and used as normalisation control. Thiazolyl Blue Tetrazolium Bromide (MTT) (A2231.001, Applichem GmbH, Darmstadt, Germany) was added to the cells in a final concentration of 0.5 mg/mL and then cells were incubated at 37 °C and 5% CO2 for 4 h. The supernatant was discarded and cells were lysed with 2-propanol (33539, Honeywell, Charlotte, NC, USA) with 0.4% HCl (30721, Merck, Darmstadt, Germany). The absorbance of each sample was measured in an automated microplate reader (Infinite 200 PRO, Tecan, Männedorf, Switzerland) at 600 nm. The average OD of each treated sample was normalized to the OD of the control sample and statistical analysis was performed using Graphpad Prism 7.0 (GraphPad Software, San Diego, CA, USA).

[2] = Cytotoxicity by MTT assay in RAW 264.7 macrophages; format: cell-based, mouse; settings: mouse, 72 h of treatment
Experimental: as §1, §2, §3

[3] = system: NO production in LPS-treated RAW 264.7 cells; experiment: Inhibition of NO production (Griess reaction) in LPS-treated RAW 264.7 macrophages; format: cell-based, mouse; settings: for IC50: Mus musculus, RAW264.7, LPS (100 ng/mL, 48 h)-treated RAW 264.7 cells, 1 h pre-treatment, Griess reaction, vs vehicle Carbowax 400; for anti-inflammatory activity (inhibition of NO production), in words: TLR4 (LPS) stimulated macrophages
Experimental: as §1, §2
30 × 10^4 RAW 264.7 mouse macrophages were plated in 24-well plates over-night with 0.5 mL complete medium. Cells were pretreated for 1 h with the respected compound concentration and then stimulated with 100 ng/mL LPS (L2630, Merck, Darmstadt, Germany) for 48 h. The amount of nitrite, an oxidative product of NO, was measured in culture supernatant of each sample using the Griess reaction. 100 μL of supernatant was mixed with 100 μL of sulfanilamide solution (1% sulfanilamide in 5% H3PO4) and incubated for 5 min at room temperature. Then, 100 μL of NED solution (0.1% N-1-napthylethylenediamine dihydrochlorite in H2O) was added and the absorbance was measured in an automated microplate reader (Infinite 200 PRO, Tecan, Männedorf, Switzerland) at 540 nm. Nitrite concentration was calculated using a sodium nitrite standard curve. All incubations were performed in the dark.

[4] = Stability of isolated metabolites (observation); format: physicochemical; settings: reason why bioactivity was not evaluated

Row | Structure (SMILES) | IC50 [3] [µM] | stability of the metabolite, in words [4] | concentration above which cytotoxicity was observed [1] | IC50 at 72 h [2] [µM] | concentration above which significant cytotoxicity was observed [1] | cytotoxicity, in words [1] | anti-inflammatory activity (inhibition of NO production), in words [3] | IC50 [2] [µM]
1 | CCC1OC2CC3OC3CC(C=C=CBr)OC2CC1Br (centres unmarked) [Compound 1, Thuwalallene A] | 26 ± 3.73 | – | higher than 15.62 μM | > 15.6 | – | – | – | –
2 | CC(C)(O)[C@H]1CC[C@](C)([C@@H](O)CC[C@](C)(O)[C@H]2CC[C@H]3O[C@@H]([C@]4(C)CC[C@@H](Br)C(C)(C)O4)CC[C@]3(C)O2)O1 [Compound 10, thyrsiferol] | – | – | – | > 0.1 | above 100 nM | without significant cytotoxicity | IC50 values in the low nM scale | –
3 | CC[C@@H]1O[C@@H]2C/C=C\C[C@H](C=C=CBr)O[C@@H]2C[C@H]1Br (relative stereo) [Compound 3, Thuwalallene C] | 4.18 ± 0.48 | – | higher than 15.62 μM | > 15.6 | – | – | – | –
4 | CC[C@@H]1O[C@@H]2C[C@@H]3O[C@@H]3C[C@H](C=C=CBr)O[C@@H]2C[C@H]1Br (relative stereo) [Compound 2, Thuwalallene B] | 13.2 ± 0.57 | – | > 31.25 µM | > 31.2 | – | – | – | –
5 | CC(=O)OC(C)(C)C1CCC(C)(C(O)CCC(C)(O)C2CCC3OC(C4(C)CCC(Br)C(C)(C)O4)CCC3(C)O2)O1 (centres unmarked) [Compound 11, 23-acetylthyrsiferol] | 0.00263 | – | – | – | above 10 nM | without significant cytotoxicity | IC50 values in the low nM scale | > 0.01

Further lines, with some results ahead:

Row | IC50 [3] [µM] | stability of the metabolite, in words [4] | Structure (SMILES) | concentration above which cytotoxicity was observed [1] | IC50 at 72 h [2] [µM] | concentration above which significant cytotoxicity was observed [1] | cytotoxicity, in words [1] | anti-inflammatory activity (inhibition of NO production), in words [3] | IC50 [2] [µM]
6 | 3.98 ± 0.6 | – | CCC(Br)C1CC2OC(C=C=CBr)CC=CCC2O1 (centres unmarked) [Compound 8, Thuwalallene E] | ≥ 7.81 µM | > 7.81 | – | – | – | –
7 | 37.4 ± 2.51 | – | C#C/C=C\CC(Br)[C@H]1C[C@H]2O[C@@H](CC)[C@H](Br)C[C@H]2O1 (relative stereo) [Compound 6, Thuwalenyne B] | higher than 15.62 μM | > 15.6 | – | – | – | –
8 | > 62.5 | – | C#C/C=C\C[C@@H]1O[C@@H]2C[C@@H](Br)[C@H](CC)O[C@@H]2C[C@@H]1Br (relative stereo) [Compound 4, Thuwalenyne A] | – | > 62.5 | – | did not exhibit anti-inflammatory activity or cytotoxicity | did not exhibit any activity; also recorded: did not exhibit anti-inflammatory activity | –
9 | – | proven to be unstable | C#C/C=C\C/C=C\C[C@H]1O[C@@H](CC)[C@H](Br)C[C@H]1O (relative stereo) [Compound 7, Thuwalenyne C] | – | – | – | – | – | –
10 | 12.4 ± 1.04 | – | CCC1OC2CC(C(O)CC(Cl)C=C=CBr)OC2CC1Br (centres unmarked) [Compound 5, Thuwalallene D] | higher than 15.62 μM | > 15.6 | – | – | – | –

Reference: PMC6891555, “Thuwalallenes A–E and Thuwalenynes A–C: New C15 Acetogenins with Anti-Inflammatory Activity from a Saudi Arabian Red Sea Laurencia sp” (Marine Drugs, 2019)
